US20070049564A1 (Wyeth, priority 2005, published 2007)
Where two headings read alike, the source gives them in different places.

Experiments:
Assay in all cases: MIC, broth microdilution
S. epidermidis GC 4935 = details: Staphylococcus epidermidis
S. pyogenes GC 4563 = details: Streptococcus pyogenes
S. pneumoniae* GC 4465 = details: Streptococcus pneumoniae
E. faecalis GC 2267 = details: Enterococcus faecalis
E. coli GC 2232 = details: Escherichia coli
S. aureus GC 6335 = details: Staphylococcus aureus
S. typhimurium GC 2172 = details: Salmonella enterica, TYPHIMURIUM
c. albicans GC 3066 = system: c. albicans GC 3066
S. pneumoniae+ GC 4465 = details: Streptococcus pneumoniae
S. aureus GC 6466 = details: Staphylococcus aureus
E. coli GC 3226 = details: Escherichia coli
S. aureus GC 1079 = details: Staphylococcus aureus
Procedure: Antimicrobial susceptibility testing. The in vitro activities of the antibiotics are determined by the broth microdilution method as recommended by the National Committee for Clinical Laboratory Standards (NCCLS) (1). Mueller-Hinton II broth (MHBII)(BBL Cockeysville, Md.) is the medium employed in the testing procedures. Microtiter plates containing serial dilutions of each antimicrobial agent are inoculated with each organism to yield the appropriate density (10^5 CFU/ml) in a 100 μl final volume. The plates are incubated for 18-22 hours at 35° C. in ambient air.
Representative compounds were first incubated in mouse serum for an hour prior to the in vitro testing against a panel of selected gram-positive and gram-negative bacteria strains. All compounds were also pre-incubated in water for an hour prior to testing as control. Representative compounds of Formula I were incubated in human serum prior to MIC determination.

E. coli GC 2234 = details: Escherichia coli
S. aureus GC 2216 = details: Staphylococcus aureus
E. faecium GC 4556 = details: Enterococcus faecium
E. coli GC 2272 = details: Escherichia coli
E. faecium GC 2243 = details: Enterococcus faecium
E. coli GC 2231 = details: Escherichia coli
S. aureus GC 1131 = details: Staphylococcus aureus
[1] = read-out: MINIMAL INHIBITORY CONCENTRATION MIC, Human Serum
[2] = read-out: MINIMAL INHIBITORY CONCENTRATION MIC, Mouse Serum
[3] = read-out: MINIMAL INHIBITORY CONCENTRATION MIC, Water

CC(C)COC(=O)N(CC(=O)Nc1cc(N(C)C)c2c(c1O)C(=O)C1=C(O)[C@]3(O)C(=O)C(C(N)=O)=C(O)[C@@H](N(C)C)[C@@H]3C[C@@H]1C2)C(C)(C)C [Example 59, isobutyl 2-{[(5aR,6aS,7S,10aS)-9-(aminocarbonyl)-4,7-bis(dimethylamino)-1,8,10a,11-tetrahydroxy-10,12-dioxo-5,5a,6,6a,7,10,10a,12-octahydrotetracen-2-yl]amino}-2-oxoethyl(tert-butyl)carbamate]
> 64 µg/mL: MIC (E. coli GC 2232; GC2232, read-out: MINIMAL INHIBITORY CONCENTRATION MIC, Human Serum) | MIC (E. coli GC 2232; GC2232, read-out: MINIMAL INHIBITORY CONCENTRATION MIC, Mouse Serum) | MIC (E. coli GC 2232; GC2232, read-out: MINIMAL INHIBITORY CONCENTRATION MIC, Water) | MIC (S. typhimurium GC 2172; [1]) | MIC (S. typhimurium GC 2172; [2]) | MIC (S. typhimurium GC 2172; [3]) | MIC (c. albicans GC 3066; Candida albicans, GC3066, read-out: MINIMAL INHIBITORY CONCENTRATION MIC) | MIC (E. coli GC 3226; GC3226, read-out: MINIMAL INHIBITORY CONCENTRATION MIC, Human Serum) | MIC (E. coli GC 3226; GC3226, read-out: MINIMAL INHIBITORY CONCENTRATION MIC, Mouse Serum) | MIC (E. coli GC 3226; GC3226, read-out: MINIMAL INHIBITORY CONCENTRATION MIC, Water) | MIC (E. coli GC 2234; GC2234, read-out: MINIMAL INHIBITORY CONCENTRATION MIC, Human Serum) | MIC (E. coli GC 2234; GC2234, read-out: MINIMAL INHIBITORY CONCENTRATION MIC, Mouse Serum) | MIC (E. coli GC 2234; GC2234, read-out: MINIMAL INHIBITORY CONCENTRATION MIC, Water) | MIC (E. coli GC 2272; GC2272, read-out: MINIMAL INHIBITORY CONCENTRATION MIC, Human Serum) | MIC (E. coli GC 2272; GC2272, read-out: MINIMAL INHIBITORY CONCENTRATION MIC, Water) | MIC (E. coli GC 2231; GC2231, read-out: MINIMAL INHIBITORY CONCENTRATION MIC, Human Serum) | MIC (E. coli GC 2231; GC2231, read-out: MINIMAL INHIBITORY CONCENTRATION MIC, Mouse Serum) | MIC (E. coli GC 2231; GC2231, read-out: MINIMAL INHIBITORY CONCENTRATION MIC, Water)
4 µg/mL: MIC (S. epidermidis GC 4935; GC4935, read-out: MINIMAL INHIBITORY CONCENTRATION MIC, Human Serum) | MIC (S. epidermidis GC 4935; GC4935, read-out: MINIMAL INHIBITORY CONCENTRATION MIC, Mouse Serum) | MIC (S. epidermidis GC 4935; GC4935, read-out: MINIMAL INHIBITORY CONCENTRATION MIC, Water) | MIC (S. pyogenes GC 4563; GC4563, read-out: MINIMAL INHIBITORY CONCENTRATION MIC, Human Serum) | MIC (S. pyogenes GC 4563; GC4563, read-out: MINIMAL INHIBITORY CONCENTRATION MIC, Mouse Serum) | MIC (S. pyogenes GC 4563; GC4563, read-out: MINIMAL INHIBITORY CONCENTRATION MIC, Water) | MIC (S. pneumoniae* GC 4465; [1]) | MIC (S. pneumoniae* GC 4465; [2]) | MIC (S. pneumoniae* GC 4465; [3]) | MIC (E. faecalis GC 2267; GC2267, read-out: MINIMAL INHIBITORY CONCENTRATION MIC, Human Serum) | MIC (E. faecalis GC 2267; GC2267, read-out: MINIMAL INHIBITORY CONCENTRATION MIC, Mouse Serum) | MIC (E. faecalis GC 2267; GC2267, read-out: MINIMAL INHIBITORY CONCENTRATION MIC, Water) | MIC (S. aureus GC 6335; GC6335, read-out: MINIMAL INHIBITORY CONCENTRATION MIC, Human Serum) | MIC (S. aureus GC 6335; GC6335, read-out: MINIMAL INHIBITORY CONCENTRATION MIC, Mouse Serum) | MIC (S. aureus GC 6335; GC6335, read-out: MINIMAL INHIBITORY CONCENTRATION MIC, Water) | MIC (S. pneumoniae+ GC 4465; [2]) | MIC (S. aureus GC 6466; GC6466, read-out: MINIMAL INHIBITORY CONCENTRATION MIC, Human Serum) | MIC (S. aureus GC 6466; GC6466, read-out: MINIMAL INHIBITORY CONCENTRATION MIC, Mouse Serum) | MIC (S. aureus GC 1079; GC1079, read-out: MINIMAL INHIBITORY CONCENTRATION MIC, Mouse Serum) | MIC (S. aureus GC 2216; GC2216, read-out: MINIMAL INHIBITORY CONCENTRATION MIC, Human Serum) | MIC (S. aureus GC 2216; GC2216, read-out: MINIMAL INHIBITORY CONCENTRATION MIC, Mouse Serum) | MIC (S. aureus GC 2216; GC2216, read-out: MINIMAL INHIBITORY CONCENTRATION MIC, Water) | MIC (E. faecium GC 4556; GC4556, read-out: MINIMAL INHIBITORY CONCENTRATION MIC, Human Serum) | MIC (E. faecium GC 4556; GC4556, read-out: MINIMAL INHIBITORY CONCENTRATION MIC, Mouse Serum) | MIC (E. faecium GC 4556; GC4556, read-out: MINIMAL INHIBITORY CONCENTRATION MIC, Water) | MIC (E. faecium GC 2243; GC2243, read-out: MINIMAL INHIBITORY CONCENTRATION MIC, Mouse Serum) | MIC (E. faecium GC 2243; GC2243, read-out: MINIMAL INHIBITORY CONCENTRATION MIC, Water) | MIC (S. aureus GC 1131; GC1131, read-out: MINIMAL INHIBITORY CONCENTRATION MIC, Human Serum) | MIC (S. aureus GC 1131; GC1131, read-out: MINIMAL INHIBITORY CONCENTRATION MIC, Mouse Serum) | MIC (S. aureus GC 1131; GC1131, read-out: MINIMAL INHIBITORY CONCENTRATION MIC, Water)
2 µg/mL: MIC (S. aureus GC 1079; GC1079, read-out: MINIMAL INHIBITORY CONCENTRATION MIC, Human Serum)
8 µg/mL: MIC (S. pneumoniae+ GC 4465; [1]) | MIC (S. pneumoniae+ GC 4465; [3]) | MIC (S. aureus GC 6466; GC6466, read-out: MINIMAL INHIBITORY CONCENTRATION MIC, Water) | MIC (S. aureus GC 1079; GC1079, read-out: MINIMAL INHIBITORY CONCENTRATION MIC, Water) | MIC (E. faecium GC 2243; GC2243, read-out: MINIMAL INHIBITORY CONCENTRATION MIC, Human Serum)
>64 UG/ML: MINIMAL INHIBITORY CONCENTRATION MIC (c. albicans GC 3066; Human Serum) | MINIMAL INHIBITORY CONCENTRATION MIC (c. albicans GC 3066; Mouse Serum)
64 µg/mL: MIC (E. coli GC 2272; GC2272, read-out: MINIMAL INHIBITORY CONCENTRATION MIC, Mouse Serum)
